Assay results: patent US20120034193A1, “TREATMENT OF NEUROTROPHIC FACTOR MEDIATED DISORDERS” (priority 2009, published 2012)
Marks after values point to notes of the source that are not given here.

What was measured:
Dopamine D1 = target: T1, Dopamine D1 (Homo sapiens, UniProt P21728); assay: Receptor binding assay; conditions: sarsasapogenin 10 μM
T1 construct: host or cells: tissue or cell homogenate, not specified
Method: (§1) The receptor binding was investigated using the following method: Sarsasapogenin was incubated with tissue or cell homogenate that expressed the receptor of interest and a known concentration a radiolabelled compound with affinity for the receptor of interest. After the incubation period the non-bound radiolabelled compound was removed and the amount of specific binding was quantified. The amount of specific binding in the presence and absence of sarsasapogenin were compared and the percent inhibition of the binding of the radiolabelled compound by sarsasapogenin was calculated. The source of the receptor, the incubation conditions, the radiolabelled compound used varied depending on each specific assay.

Muscarinic M2 = target: T2, Muscarinic M2 (Homo sapiens, UniProt P08172); assay: Receptor binding assay; conditions: sarsasapogenin 10 μM
T2 construct: host or cells: tissue or cell homogenate, not specified
Method: as §1

Glucocorticoid = target: T3, Glucocorticoid (Homo sapiens, UniProt P04150); assay: Receptor binding assay; conditions: sarsasapogenin 10 μM
T3 construct: host or cells: tissue or cell homogenate, not specified
Method: as §1

Muscarinic M1 = target: T4, Muscarinic M1 (Homo sapiens, UniProt P11229); assay: Receptor binding assay; conditions: sarsasapogenin 10 μM
T4 construct: host or cells: tissue or cell homogenate, not specified
Method: as §1

Muscarinic M5 = target: T5, Muscarinic M5 (Homo sapiens, UniProt P08912); assay: Receptor binding assay; conditions: sarsasapogenin 10 μM
T5 construct: host or cells: tissue or cell homogenate, not specified
Method: as §1

Muscarinic M4 = target: T6, Muscarinic M4 (Homo sapiens, UniProt P08173); assay: Receptor binding assay; conditions: sarsasapogenin 10 μM
T6 construct: host or cells: tissue or cell homogenate, not specified
Method: as §1

Testosterone = Testosterone (Rattus norvegicus, UniProt P15207); assay: Receptor binding assay; conditions: sarsasapogenin 10 μM
Method: as §1

Muscarinic M3 = target: T7, Muscarinic M3 (Homo sapiens, UniProt P20309); assay: Receptor binding assay; conditions: sarsasapogenin 10 μM
T7 construct: host or cells: tissue or cell homogenate, not specified
Method: as §1

Acetyl CoA synthetase = assay: Enzyme activity assay; format: biochemical, Yeast; conditions: sarsasapogenin 100 μM
Method: (§2) The enzyme activity modulation was investigated using the following method: Sarsasapogenin was incubated with each enzyme plus a specific substrate for each enzyme. After the incubation period the reaction was stopped and the reduction of the specific substrate or the increase in a specific product in the absence and presence of sarsasapogenin was measured and the percent inhibition of the reaction in the presence of sarsasapogenin was calculated. The amount of enzyme used, the incubation conditions, the substrate used and the method of quantification varied depending on each specific assay.

MPTP-lesioned macaques = assay: Parkinsonian disability in MPTP-lesioned macaques; format: in vivo, Macaca fascicularis
Method: (§3) Nineteen female cynomolgus monkeys (Macaca fascicularis, 3.0-4.5 kg, 4-6 years old) were acclimatised to the experimental setting and procedures for 3 months and baseline behaviour was assessed in all animals. Fourteen female macaques received MPTP (0.2 mg/kg/day, s.c.) until marked, stable, parkinsonian symptoms developed. Animals (n=7/group) were randomly assigned to two groups; smilagenin (20 mg/kg/day, p.o.) or vehicle control (HPMC, 0.5% w/v containing Tween 80, 0.2% v/v).
(§4) Assessments of parkinsonian disability were made after MPTP administration and following 18 weeks of smilagenin or vehicle administration. Parkinsonian disability was evaluated by post hoc analysis of DVD-recordings by a neurologist blinded to the treatment. At the end of the study the brains were removed and the levels of unbound GDNF and BDNF in the putamen were measured using Multiplex ELISA/Aushon assays. The MPTP treated macaques used in this experiment thus provide an accepted model for Parkinson's disease and similar motor-sensory neurodegenerative conditions.

[1] = tested on: Platelet-Derived Growth Factor (PDGF); assay: Binding assay; parameters: species or system Mouse; conditions: smilagenin 1 μM
Method: as §1
(§5) Using the same methods as described above, the binding of smilagenin (1 μM) to the receptors listed in Table 2 below, and the effect of smilagenin on the activity of the enzymes listed in Table 2 below, were investigated.

Phorbol Ester = assay: Binding assay; parameters: species or system Mouse; conditions: smilagenin 1 μM
Method: as §1, §5

[2] = tested on: Transforming Growth Factor-β (TGF-β); assay: Binding assay; parameters: species or system Mouse; conditions: smilagenin 1 μM
Method: as §1, §5

[3] = tested on: Free Radical Scavenger, SOD Mimetic; assay: Functional assay; format: biochemical, Bovine; conditions: smilagenin 1 μM
Method: as §2, §5

BDNF [4] = assay: Unbound BDNF in the putamen of MPTP-lesioned macaques; format: in vivo, Macaca fascicularis; conditions: smilagenin 20 mg/kg/day p.o., 18 weeks; control 257.58, MPTP 388.73
Method: as §3, §4

BDNF mRNA = BDNF mRNA expression in rat cortical neurones after 48 h incubation (rt RT-PCR); format: cell-based; conditions: 10 μM, mean ± s.e.mean, n = 3
Method: In a separate experiment, rat cortical neurones were cultured by modification of a method previously described (Eckenstein and Sofroniew, Journal of Neuroscience, 1983, 3, pp. 2286-2291). On day 8, the culture medium was changed to a medium containing vehicle (DMSO, 0.5%) or smilagenin (10 μM) for 48 h and the level of BDNF mRNA in the cortical neurones was assessed by rt RT-PCR.

BDNF [5] = assay: BDNF protein in culture medium of rat cortical neurones under basal conditions; format: cell-based; conditions: 10 μM, day 8 to day 12, basal culture; control 3.66 ± 0.05
Method: Rat cortical neurones were cultured by modification of a method previously described (Eckenstein and Sofroniew, Journal of Neuroscience, 1983, 3, pp. 2286-2291). On day 8, the culture medium was changed to a medium containing vehicle (DMSO, 0.5%) or smilagenin (10 μM). On day 12 the concentration of BDNF in the culture medium, was measured.

[6] = tested on: Vascular Endothelial Growth Factor (VEGF); assay: Binding assay; parameters: species or system Human; conditions: smilagenin 1 μM
Method: as §1, §5

Chemokine CXCR1 = assay: Binding assay; parameters: species or system Human; conditions: smilagenin 1 μM
Method: as §1, §5

[7] = tested on: Tumour Necrosis Factor (TNF), non-selective; assay: Binding assay; parameters: species or system Human; conditions: smilagenin 1 μM
Method: as §1, §5

Nicotinic Acetylcholine = assay: Binding assay; parameters: species or system Human; conditions: smilagenin 1 μM
Method: as §1, §5

T2 sequence (P08172 whole entry): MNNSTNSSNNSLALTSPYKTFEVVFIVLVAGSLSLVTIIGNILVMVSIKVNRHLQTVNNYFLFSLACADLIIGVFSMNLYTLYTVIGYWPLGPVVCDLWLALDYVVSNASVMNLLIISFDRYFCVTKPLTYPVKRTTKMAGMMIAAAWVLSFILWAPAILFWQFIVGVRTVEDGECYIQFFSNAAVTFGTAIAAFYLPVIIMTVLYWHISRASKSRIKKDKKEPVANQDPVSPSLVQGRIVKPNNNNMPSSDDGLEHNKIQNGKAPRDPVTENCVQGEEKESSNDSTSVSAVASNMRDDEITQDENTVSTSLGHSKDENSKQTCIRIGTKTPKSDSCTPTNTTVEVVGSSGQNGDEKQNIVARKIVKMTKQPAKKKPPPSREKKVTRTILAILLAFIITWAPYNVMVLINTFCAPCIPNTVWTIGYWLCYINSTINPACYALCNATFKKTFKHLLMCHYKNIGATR
Sequence of Testosterone (P15207 whole entry S389L): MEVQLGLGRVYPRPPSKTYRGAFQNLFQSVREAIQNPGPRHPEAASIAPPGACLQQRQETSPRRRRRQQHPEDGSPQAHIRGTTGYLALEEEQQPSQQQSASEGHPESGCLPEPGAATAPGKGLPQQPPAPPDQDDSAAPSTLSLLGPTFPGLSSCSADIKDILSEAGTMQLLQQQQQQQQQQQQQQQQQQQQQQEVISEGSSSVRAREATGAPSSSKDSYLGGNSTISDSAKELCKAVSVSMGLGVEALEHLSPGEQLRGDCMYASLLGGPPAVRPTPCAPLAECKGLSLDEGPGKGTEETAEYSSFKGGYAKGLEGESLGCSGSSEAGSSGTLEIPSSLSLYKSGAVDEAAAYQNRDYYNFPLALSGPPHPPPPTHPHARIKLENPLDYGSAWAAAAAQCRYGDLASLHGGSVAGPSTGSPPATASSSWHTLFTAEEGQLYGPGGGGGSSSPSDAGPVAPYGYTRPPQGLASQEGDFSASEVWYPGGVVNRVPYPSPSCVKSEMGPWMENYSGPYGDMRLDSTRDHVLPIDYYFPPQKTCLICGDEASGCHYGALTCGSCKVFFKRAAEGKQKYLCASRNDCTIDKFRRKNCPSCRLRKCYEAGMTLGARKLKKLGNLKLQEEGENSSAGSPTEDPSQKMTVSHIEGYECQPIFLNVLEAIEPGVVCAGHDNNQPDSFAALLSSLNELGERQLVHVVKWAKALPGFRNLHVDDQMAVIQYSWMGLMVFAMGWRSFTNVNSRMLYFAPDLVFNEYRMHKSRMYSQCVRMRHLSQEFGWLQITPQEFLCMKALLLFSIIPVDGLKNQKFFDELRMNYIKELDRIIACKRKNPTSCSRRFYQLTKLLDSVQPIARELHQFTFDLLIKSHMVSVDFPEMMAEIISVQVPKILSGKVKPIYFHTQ
T4 sequence (P11229 whole entry): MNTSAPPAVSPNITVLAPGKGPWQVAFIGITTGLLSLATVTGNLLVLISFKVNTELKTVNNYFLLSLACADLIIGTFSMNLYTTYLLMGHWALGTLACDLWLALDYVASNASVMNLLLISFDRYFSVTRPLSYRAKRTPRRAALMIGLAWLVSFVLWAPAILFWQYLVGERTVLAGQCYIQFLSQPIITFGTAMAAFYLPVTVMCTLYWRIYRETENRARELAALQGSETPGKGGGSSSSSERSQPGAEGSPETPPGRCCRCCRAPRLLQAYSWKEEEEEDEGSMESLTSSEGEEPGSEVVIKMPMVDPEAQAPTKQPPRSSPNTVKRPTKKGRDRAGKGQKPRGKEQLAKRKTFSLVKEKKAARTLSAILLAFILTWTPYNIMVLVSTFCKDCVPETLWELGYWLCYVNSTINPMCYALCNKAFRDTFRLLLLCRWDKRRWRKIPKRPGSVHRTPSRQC
T6 sequence (P08173 whole entry): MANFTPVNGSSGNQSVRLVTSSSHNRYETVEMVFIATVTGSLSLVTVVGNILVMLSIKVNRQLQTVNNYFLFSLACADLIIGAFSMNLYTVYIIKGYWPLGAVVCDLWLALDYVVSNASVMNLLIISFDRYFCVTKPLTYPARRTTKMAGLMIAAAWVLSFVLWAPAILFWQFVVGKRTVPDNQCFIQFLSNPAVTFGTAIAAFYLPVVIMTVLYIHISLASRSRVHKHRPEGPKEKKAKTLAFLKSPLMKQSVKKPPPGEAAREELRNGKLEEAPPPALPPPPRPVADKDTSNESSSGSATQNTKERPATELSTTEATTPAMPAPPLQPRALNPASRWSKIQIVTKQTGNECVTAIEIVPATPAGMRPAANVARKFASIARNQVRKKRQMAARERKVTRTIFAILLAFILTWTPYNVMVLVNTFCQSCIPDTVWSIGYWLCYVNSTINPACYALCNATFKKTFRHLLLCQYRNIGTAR
T5 sequence (P08912 whole entry): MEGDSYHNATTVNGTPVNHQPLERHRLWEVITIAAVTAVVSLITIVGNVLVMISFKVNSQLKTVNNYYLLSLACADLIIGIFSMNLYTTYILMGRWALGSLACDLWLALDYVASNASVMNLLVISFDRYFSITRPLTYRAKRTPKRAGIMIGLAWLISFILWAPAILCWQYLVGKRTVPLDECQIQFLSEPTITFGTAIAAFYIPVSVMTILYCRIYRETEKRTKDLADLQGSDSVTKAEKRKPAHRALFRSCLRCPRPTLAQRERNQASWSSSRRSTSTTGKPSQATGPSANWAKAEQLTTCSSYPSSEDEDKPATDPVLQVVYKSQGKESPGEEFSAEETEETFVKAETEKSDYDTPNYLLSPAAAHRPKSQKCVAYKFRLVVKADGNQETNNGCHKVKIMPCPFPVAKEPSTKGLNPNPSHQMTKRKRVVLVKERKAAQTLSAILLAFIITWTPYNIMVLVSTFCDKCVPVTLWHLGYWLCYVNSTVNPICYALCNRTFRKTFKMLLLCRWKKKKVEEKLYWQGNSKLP
T1 sequence (P21728 whole entry): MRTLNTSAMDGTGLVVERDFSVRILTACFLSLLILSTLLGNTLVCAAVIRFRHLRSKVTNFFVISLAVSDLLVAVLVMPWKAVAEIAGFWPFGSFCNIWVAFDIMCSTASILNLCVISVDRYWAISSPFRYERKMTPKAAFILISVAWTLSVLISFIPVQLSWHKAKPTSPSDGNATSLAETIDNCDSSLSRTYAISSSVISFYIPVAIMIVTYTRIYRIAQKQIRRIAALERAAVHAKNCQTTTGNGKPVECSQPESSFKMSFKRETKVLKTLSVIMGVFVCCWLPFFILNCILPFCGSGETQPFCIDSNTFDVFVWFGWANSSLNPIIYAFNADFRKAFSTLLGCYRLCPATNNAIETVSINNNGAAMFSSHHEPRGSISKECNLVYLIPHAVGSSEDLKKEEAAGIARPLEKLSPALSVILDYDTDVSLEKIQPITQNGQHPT
T3 sequence (P04150 whole entry): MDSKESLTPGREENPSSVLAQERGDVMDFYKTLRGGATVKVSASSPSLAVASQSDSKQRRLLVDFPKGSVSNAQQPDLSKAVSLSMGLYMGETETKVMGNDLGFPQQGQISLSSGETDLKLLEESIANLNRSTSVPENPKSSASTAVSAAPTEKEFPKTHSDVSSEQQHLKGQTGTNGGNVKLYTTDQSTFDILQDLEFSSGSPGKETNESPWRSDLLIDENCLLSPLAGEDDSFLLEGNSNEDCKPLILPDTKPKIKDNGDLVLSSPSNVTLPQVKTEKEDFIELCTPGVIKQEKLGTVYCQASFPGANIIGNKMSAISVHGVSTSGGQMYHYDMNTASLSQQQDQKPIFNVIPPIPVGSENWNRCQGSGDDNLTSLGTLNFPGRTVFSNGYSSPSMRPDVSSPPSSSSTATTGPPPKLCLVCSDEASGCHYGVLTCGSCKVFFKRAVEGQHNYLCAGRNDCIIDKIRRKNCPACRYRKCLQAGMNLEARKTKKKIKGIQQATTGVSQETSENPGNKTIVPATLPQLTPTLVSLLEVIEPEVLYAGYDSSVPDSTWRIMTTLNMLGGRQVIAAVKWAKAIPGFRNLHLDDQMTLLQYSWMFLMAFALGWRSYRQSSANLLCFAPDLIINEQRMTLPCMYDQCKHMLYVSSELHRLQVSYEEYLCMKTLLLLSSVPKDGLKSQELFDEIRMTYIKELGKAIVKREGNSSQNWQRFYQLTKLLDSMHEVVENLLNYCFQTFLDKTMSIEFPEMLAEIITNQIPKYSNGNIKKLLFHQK
T7 sequence (P20309 whole entry): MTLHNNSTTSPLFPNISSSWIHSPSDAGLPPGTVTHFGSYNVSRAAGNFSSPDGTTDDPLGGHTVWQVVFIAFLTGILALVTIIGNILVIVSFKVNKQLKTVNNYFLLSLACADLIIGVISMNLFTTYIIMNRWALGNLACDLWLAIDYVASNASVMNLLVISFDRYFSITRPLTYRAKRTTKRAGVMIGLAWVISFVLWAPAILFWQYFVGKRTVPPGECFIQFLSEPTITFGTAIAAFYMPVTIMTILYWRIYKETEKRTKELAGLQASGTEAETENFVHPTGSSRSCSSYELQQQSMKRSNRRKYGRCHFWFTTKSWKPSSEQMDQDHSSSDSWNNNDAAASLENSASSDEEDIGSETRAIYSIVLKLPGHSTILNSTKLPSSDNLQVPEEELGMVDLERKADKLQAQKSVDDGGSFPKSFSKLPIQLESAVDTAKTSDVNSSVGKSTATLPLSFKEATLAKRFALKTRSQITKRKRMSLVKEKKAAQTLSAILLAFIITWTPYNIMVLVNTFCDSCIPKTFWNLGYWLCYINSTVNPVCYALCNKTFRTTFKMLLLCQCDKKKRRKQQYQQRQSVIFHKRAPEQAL

Compound: C[C@H]1CC[C@@]2(OC1)O[C@H]1C[C@H]3[C@@H]4CC[C@@H]5C[C@@H](O)CC[C@]5(C)[C@H]4CC[C@]3(C)[C@H]1[C@@H]2C [Sarsasapogenin, sarsasapogenin]
- Effect (%) (Dopamine D1): NS (NS = No significant response. Significance was taken as ≧30% stimulation or inhibition)
- Effect (%) (Muscarinic M2): NS (NS = No significant response. Significance was taken as ≧30% stimulation or inhibition)
- Effect (%) (Glucocorticoid): NS (NS = No significant response. Significance was taken as ≧30% stimulation or inhibition)
- Effect (%) (Muscarinic M1): NS (NS = No significant response. Significance was taken as ≧30% stimulation or inhibition)
- Effect (%) (Muscarinic M5): NS (NS = No significant response. Significance was taken as ≧30% stimulation or inhibition)
- Effect (%) (Muscarinic M4): NS (NS = No significant response. Significance was taken as ≧30% stimulation or inhibition)
- Effect (%) (Testosterone): NS (NS = No significant response. Significance was taken as ≧30% stimulation or inhibition)
- Effect (%) (Muscarinic M3): NS (NS = No significant response. Significance was taken as ≧30% stimulation or inhibition)
- Effect (%) (Acetyl CoA synthetase): NS (NS = No significant response. Significance was taken as ≧30% stimulation or inhibition)

Compound: C[C@@H]1CC[C@@]2(OC1)O[C@H]1C[C@H]3[C@@H]4CC[C@@H]5C[C@@H](O)CC[C@]5(C)[C@H]4CC[C@]3(C)[C@H]1[C@@H]2C [Smilagenin, smilagenin]
- Median parkinsonian disability post-MPTP administration (MPTP-lesioned macaques; baseline of the smilagenin group, before dosing): 47.17
- Median parkinsonian disability at week 18 (MPTP-lesioned macaques; smilagenin 20 mg/kg/day p.o., 18 weeks, MPTP vehicle group 41.67): 27.00^###
- Effect (%) [1]: NS (NS = No significant response. Significance was taken as ≧30% stimulation or inhibition)
- Effect (%) (Phorbol Ester): NS (NS = No significant response. Significance was taken as ≧30% stimulation or inhibition)
- Effect (%) [2]: NS (NS = No significant response. Significance was taken as ≧30% stimulation or inhibition)
- Effect (%) [3]: NS (NS = No significant response. Significance was taken as ≧30% stimulation or inhibition)
- Mean ± s.e.mean of unbound BDNF level in the putamen (pg/mg protein) (BDNF [4]): 208.27 ± 36.58 pg/mg protein
- Relative amount of BDNF mRNA (% of control) (BDNF mRNA): 103.9 ± 6.5 % of control
- BDNF concentration (BDNF [5]): 3.67 ± 0.05 pg/mL
- Effect (%) [6]: NS (NS = No significant response. Significance was taken as ≧30% stimulation or inhibition)
- Effect (%) (Chemokine CXCR1): NS (NS = No significant response. Significance was taken as ≧30% stimulation or inhibition)
- Effect (%) [7]: NS (NS = No significant response. Significance was taken as ≧30% stimulation or inhibition)
- Effect (%) (Nicotinic Acetylcholine): NS (NS = No significant response. Significance was taken as ≧30% stimulation or inhibition)
